Measured values taken from ChEMBL document CHEMBL5649167, “The SUV4-20 inhibitor A-196 verifies a role for epigenetics in genomic integrity” (Nat Chem Biol, 2017).
Active and inactive are the calls of the source. The calls are words filed in the database; no cut-off is given here.

Assays:
Homo sapiens [1] = organism: Homo sapiens; assay: Inhibition of human GABAA at 10 uM relative to control
[2] = target: 5-hydroxytryptamine receptor 7 (Homo sapiens) (UniProt P34969); assay: Inhibition of human 5-HT7 in stable HEK cells at 10 uM relative to control; format: cell-based
[3] = target: Histone-lysine N-methyltransferase KMT5C (Homo sapiens) (UniProt Q86Y97); assay: Inhibition of human SUV420H2 using Biotin-tagged H4K20me1 and [3H-SAM] as substrate incubated for 2 hrs by scintillation proximity assay
U2OS [4] = assay: Inhibition of H4K20me3 in human U2OS cells assessed as change in methylation level at 10 uM incubated for 48 hrs by Western blotting analysis; format: functional, cell-based
Homo sapiens [5] = organism: Homo sapiens; assay: Inhibition of human Gastric receptor I at 10 uM relative to control
[6] = target: Histone-lysine N-methyltransferase KMT5B (Homo sapiens) (UniProt Q4FZB7); assay: Inhibition of recombinant human 6His-(Tev)-G-SUV420H1 (69 to 335 residues) using Biotin-tagged H4K20me1 and [3H-SAM] as substrate incubated for 2 hrs by scintillation proximity assay
Homo sapiens [7] = organism: Homo sapiens; assay: Inhibition of human CB1 at 10 uM relative to control
[8] = target: Sodium-dependent noradrenaline transporter (Homo sapiens) (UniProt P23975); assay: Inhibition of human Norepinephrine transporter at 10 uM relative to control
Chain of Sodium-dependent noradrenaline transporter (Homo sapiens) (P23975 whole entry): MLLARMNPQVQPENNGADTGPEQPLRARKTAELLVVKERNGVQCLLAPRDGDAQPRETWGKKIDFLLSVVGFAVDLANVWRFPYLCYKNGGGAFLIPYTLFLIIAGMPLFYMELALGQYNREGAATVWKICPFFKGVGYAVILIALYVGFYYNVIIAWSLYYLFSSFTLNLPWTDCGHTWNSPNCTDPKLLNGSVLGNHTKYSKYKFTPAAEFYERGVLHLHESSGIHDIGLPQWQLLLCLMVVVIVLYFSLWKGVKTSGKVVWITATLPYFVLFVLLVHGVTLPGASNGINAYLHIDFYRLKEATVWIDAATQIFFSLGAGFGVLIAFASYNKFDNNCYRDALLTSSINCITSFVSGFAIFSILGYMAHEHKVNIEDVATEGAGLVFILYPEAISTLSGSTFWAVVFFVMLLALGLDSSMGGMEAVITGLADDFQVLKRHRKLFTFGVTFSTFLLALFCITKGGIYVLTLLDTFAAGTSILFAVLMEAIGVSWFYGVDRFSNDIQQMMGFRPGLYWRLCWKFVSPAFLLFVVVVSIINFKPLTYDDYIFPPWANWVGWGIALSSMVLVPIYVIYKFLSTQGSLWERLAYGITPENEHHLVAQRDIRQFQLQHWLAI

[9] = target: Neurotensin receptor type 1 (Homo sapiens) (UniProt P30989); assay: Inhibition of human NTS1 at 10 uM relative to control
PC-3 = assay: Antiproliferative activity against human PC-3 cells assessed as cell population doubling at 1 uM incubated for 80 days; format: functional, cell-based; details: time 80.0 day
U2OS [10] = assay: Induction of cell cycle arrest in human U2OS cells assessed as decrease in H4K20me3 in S phase at 0.6 to 6 uM by plot analysis; format: functional, cell-based; details: dose 0.6-6 µM
[11] = target: D(1B) dopamine receptor (Homo sapiens) (UniProt P21918); assay: Inhibition of human D(5) dopamine receptor expressed in HEK293T cells at 10 uM relative to control; format: cell-based
Chain of D(1B) dopamine receptor (Homo sapiens) (P21918 whole entry): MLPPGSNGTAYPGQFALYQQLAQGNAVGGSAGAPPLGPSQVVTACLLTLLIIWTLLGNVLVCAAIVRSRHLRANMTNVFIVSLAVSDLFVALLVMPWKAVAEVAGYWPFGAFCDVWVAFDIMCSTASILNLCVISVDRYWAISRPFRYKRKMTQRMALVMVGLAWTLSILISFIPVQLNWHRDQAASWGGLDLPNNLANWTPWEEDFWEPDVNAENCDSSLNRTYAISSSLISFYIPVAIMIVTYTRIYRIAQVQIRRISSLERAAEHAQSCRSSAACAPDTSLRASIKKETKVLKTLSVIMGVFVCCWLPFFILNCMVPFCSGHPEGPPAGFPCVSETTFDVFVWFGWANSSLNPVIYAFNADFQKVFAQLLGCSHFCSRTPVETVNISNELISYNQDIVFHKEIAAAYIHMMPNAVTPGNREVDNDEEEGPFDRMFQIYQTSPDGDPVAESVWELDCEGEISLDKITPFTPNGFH

[12] = target: Serine/threonine-protein kinase PAK 2 (Homo sapiens) (UniProt Q13177); assay: Inhibition of human PAK2 at 10 uM relative to control
[13] = target: Histone-lysine N-methyltransferase NSD2 (Homo sapiens) (UniProt O96028); assay: Inhibition of NSD2 (unknown origin) at 1 to 10 uM incubated for 1 hrs by scintillation proximity assay; details: dose 1-10 µM
U2OS [14] = assay: Cytotoxicity against human U2OS cells assessed as cell viability upto 12.5 uM incubated for 48 hrs; format: functional, cell-based
[15] = target: Histone-lysine N-methyltransferase 2C (Homo sapiens) (UniProt Q8NEZ4); assay: Inhibition of MLL3 (unknown origin) using Biotin-tagged H4K20me1 and [3H-SAM] as substrate at 1 to 10 uM incubated for 2 hrs by scintillation proximity assay; details: dose 1-10 µM
[16] = target: Protein kinase C beta type (Homo sapiens) (UniProt P05771); assay: Inhibition of human PKCbeta 2 at 10 uM relative to control
Chain of Protein kinase C beta type (Homo sapiens) (P05771 2-671 limits assumed): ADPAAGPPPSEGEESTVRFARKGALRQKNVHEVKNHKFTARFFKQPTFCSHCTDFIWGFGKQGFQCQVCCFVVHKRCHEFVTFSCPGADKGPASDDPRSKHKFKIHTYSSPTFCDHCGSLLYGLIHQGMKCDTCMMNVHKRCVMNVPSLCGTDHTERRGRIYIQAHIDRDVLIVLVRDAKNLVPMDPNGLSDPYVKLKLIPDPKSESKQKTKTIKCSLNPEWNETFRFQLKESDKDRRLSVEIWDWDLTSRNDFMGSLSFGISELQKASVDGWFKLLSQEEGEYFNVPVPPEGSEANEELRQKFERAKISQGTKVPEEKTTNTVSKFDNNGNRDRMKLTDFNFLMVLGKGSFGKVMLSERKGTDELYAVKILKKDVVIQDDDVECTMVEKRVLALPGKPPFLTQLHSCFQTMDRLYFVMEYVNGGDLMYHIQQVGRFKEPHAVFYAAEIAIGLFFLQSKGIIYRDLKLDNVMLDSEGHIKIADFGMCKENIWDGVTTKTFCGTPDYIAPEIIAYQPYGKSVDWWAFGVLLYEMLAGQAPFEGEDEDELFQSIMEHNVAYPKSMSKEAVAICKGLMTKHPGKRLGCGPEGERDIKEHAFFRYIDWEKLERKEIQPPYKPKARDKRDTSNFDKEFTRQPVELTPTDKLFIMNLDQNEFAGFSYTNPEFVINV

U2OS [17] = assay: Inhibition of colony formation in human U2OS cells at 1 uM incubated for 48 hrs in the presence of etoposide by cell clonogenic assay; format: functional, cell-based
U2OS [18] = assay: Antiproliferative activity against human U2OS cells assessed as cell population doubling at 1 uM incubated for 80 days; format: functional, cell-based; details: time 80.0 day
[19] = target: Endothelin-1 receptor (Homo sapiens) (UniProt P25101); assay: Inhibition of human ETA at 10 uM relative to control
[20] = target: Histone-lysine N-methyltransferase SETD2 (Homo sapiens) (UniProt Q9BYW2); assay: Inhibition of SETD2 (unknown origin) using Biotin-tagged H4K20me1 and [3H-SAM] as substrate at 1 to 10 uM incubated for 2 hrs by scintillation proximity assay; details: dose 1-10 µM
[21] = target: Protein arginine N-methyltransferase 8 (Homo sapiens) (UniProt Q9NR22); assay: Inhibition of PRMT8 (unknown origin) using Biotin-tagged H4K20me1 and [3H-SAM] as substrate at 1 to 10 uM incubated for 2 hrs by scintillation proximity assay; details: dose 1-10 µM
Chain of Protein arginine N-methyltransferase 8 (Homo sapiens) (Q9NR22 2-394 limits assumed): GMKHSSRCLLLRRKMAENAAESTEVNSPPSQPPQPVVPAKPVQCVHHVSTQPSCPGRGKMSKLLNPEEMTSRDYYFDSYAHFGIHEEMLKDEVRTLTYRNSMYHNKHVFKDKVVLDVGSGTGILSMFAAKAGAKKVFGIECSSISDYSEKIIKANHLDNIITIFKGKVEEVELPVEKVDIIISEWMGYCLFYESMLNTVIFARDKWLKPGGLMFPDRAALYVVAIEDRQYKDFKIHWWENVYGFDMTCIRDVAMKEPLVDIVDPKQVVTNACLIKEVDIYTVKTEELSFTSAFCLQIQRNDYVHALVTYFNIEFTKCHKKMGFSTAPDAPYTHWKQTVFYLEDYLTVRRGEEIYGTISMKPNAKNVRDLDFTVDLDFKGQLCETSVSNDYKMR

[22] = target: Protein arginine N-methyltransferase 1 (Homo sapiens) (UniProt Q99873); assay: Inhibition of PRMT1 (unknown origin) using Biotin-tagged H4K20me1 and [3H-SAM] as substrate at 1 to 10 uM incubated for 2 hrs by scintillation proximity assay; details: dose 1-10 µM
Chain of Protein arginine N-methyltransferase 1 (Homo sapiens) (Q99873 whole entry, looked up): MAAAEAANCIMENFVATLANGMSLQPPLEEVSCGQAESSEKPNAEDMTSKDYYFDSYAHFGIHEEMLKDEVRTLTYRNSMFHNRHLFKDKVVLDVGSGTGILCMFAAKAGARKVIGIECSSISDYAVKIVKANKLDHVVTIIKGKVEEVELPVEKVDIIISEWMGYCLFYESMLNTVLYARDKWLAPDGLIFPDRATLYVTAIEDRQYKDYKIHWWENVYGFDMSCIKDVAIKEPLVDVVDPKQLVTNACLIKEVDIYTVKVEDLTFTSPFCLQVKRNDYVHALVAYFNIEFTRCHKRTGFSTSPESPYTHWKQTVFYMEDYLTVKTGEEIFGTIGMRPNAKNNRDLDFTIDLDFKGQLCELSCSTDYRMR

U2OS [23] = assay: Induction of DNA repair in human U2OS cells expressing I-SceI reporter assessed as decrease in H4K20me2 level by Western blot analysis; format: functional, cell-based
[24] = target: Cyclin-dependent kinase 1 (Homo sapiens) (UniProt P06493); assay: Inhibition of human CDC2 at 10 uM relative to control
Chain of Cyclin-dependent kinase 1 (Homo sapiens) (P06493 whole entry, looked up): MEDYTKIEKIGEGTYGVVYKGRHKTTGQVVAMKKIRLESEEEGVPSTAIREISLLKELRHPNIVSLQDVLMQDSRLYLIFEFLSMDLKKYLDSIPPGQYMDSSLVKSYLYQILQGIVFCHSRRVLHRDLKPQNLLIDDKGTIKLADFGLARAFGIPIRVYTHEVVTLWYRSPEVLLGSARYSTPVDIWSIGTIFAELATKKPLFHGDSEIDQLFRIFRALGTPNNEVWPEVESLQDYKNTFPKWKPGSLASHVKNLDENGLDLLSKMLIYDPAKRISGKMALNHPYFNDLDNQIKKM

U2OS [25] = assay: Antiproliferative activity against human U2OS cells assessed as inhibition in H4K20me2 expression level 21 doublings by Western blot analysis; format: functional, cell-based
MEF = assay: Antiproliferative activity against mouse MEF cells assessed as increase in H4K20me1 level at 10 uM incubated for 3 days by immunofluorescence analysis; format: functional, cell-based; details: time 3.0 day
U2OS [26] = assay: Antiproliferative activity against human U2OS cells assessed as inhibition in H4K20me3 expression level 21 doublings by Western blot analysis; format: functional, cell-based
[27] = target: PRMT5/MEP50 complex (Homo sapiens) (UniProt O14744+Q9BQA1); assay: Inhibition of PRMT5/MEP50 complex (unknown origin) using Biotin-tagged H4K20me1 and [3H-SAM] as substrate at 1 to 10 uM incubated for 2 hrs by scintillation proximity assay; format: protein-complex assay; details: dose 1-10 µM
[28] = target: Histone-lysine N-methyltransferase EZH2 (Homo sapiens) (UniProt Q15910); assay: Inhibition of EZH2 (unknown origin) using Biotin-tagged H4K20me1 and [3H-SAM] as substrate at 1 to 10 uM incubated for 2 hrs by scintillation proximity assay; details: dose 1-10 µM
Chain of Histone-lysine N-methyltransferase EZH2 (Homo sapiens) (Q15910 whole entry, looked up): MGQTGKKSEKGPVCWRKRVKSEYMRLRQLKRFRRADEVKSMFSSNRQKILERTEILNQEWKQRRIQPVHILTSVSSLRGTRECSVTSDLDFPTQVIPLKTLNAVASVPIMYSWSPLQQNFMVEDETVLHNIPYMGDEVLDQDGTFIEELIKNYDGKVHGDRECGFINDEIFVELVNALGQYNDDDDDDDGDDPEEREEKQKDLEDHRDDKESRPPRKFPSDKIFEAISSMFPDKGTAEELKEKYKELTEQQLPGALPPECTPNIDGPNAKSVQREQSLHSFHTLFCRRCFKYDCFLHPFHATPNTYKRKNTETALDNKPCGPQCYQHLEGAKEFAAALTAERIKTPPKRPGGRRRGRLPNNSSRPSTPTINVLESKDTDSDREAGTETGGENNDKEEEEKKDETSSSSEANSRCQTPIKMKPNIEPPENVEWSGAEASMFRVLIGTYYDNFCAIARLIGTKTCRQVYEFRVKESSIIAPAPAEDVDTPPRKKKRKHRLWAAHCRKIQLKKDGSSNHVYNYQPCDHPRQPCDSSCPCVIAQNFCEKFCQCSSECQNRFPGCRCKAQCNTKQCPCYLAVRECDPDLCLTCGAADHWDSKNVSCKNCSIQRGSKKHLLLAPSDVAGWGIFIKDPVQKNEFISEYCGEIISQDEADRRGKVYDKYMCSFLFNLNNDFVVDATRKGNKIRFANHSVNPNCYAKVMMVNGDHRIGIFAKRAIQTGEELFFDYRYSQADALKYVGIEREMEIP

HeLa = assay: Antiproliferative activity against human HeLa cells assessed as cell population doubling at 1 uM incubated for 80 days; format: functional, cell-based; details: time 80.0 day
[29] = target: Mitogen-activated protein kinase 14 (Homo sapiens) (UniProt Q16539); assay: Inhibition of human p38alpha at 10 uM relative to control
Chain of Mitogen-activated protein kinase 14 (Homo sapiens) (Q16539 whole entry): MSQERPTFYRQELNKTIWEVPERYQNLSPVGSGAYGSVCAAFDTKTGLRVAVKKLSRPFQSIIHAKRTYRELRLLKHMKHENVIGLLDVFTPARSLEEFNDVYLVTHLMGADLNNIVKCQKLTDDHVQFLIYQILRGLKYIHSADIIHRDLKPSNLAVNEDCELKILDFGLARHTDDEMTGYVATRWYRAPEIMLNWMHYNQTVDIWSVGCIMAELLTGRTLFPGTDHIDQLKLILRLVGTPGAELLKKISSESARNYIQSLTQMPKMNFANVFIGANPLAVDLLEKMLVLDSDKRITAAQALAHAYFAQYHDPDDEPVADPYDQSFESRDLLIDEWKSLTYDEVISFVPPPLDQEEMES

[30] = target: RAC-alpha serine/threonine-protein kinase (Homo sapiens) (UniProt P31749); assay: Inhibition of human Akt1 at 10 uM relative to control
Chain of RAC-alpha serine/threonine-protein kinase (Homo sapiens) (P31749 whole entry): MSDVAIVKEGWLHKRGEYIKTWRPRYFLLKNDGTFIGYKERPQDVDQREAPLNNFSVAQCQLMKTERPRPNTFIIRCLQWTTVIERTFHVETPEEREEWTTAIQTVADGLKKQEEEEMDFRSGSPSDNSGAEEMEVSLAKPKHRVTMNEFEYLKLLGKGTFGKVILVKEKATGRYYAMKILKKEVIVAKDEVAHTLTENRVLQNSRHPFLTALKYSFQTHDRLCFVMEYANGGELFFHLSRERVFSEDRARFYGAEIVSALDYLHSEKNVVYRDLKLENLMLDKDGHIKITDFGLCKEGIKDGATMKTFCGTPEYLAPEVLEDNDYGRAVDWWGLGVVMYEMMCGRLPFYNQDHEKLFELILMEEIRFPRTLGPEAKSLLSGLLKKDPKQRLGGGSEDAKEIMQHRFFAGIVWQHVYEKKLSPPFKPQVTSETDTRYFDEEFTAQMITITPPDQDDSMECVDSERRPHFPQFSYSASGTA

[31] = target: High affinity nerve growth factor receptor (Homo sapiens) (UniProt P04629); assay: Inhibition of human TRKA at 10 uM relative to control
[32] = target: Calcium/calmodulin-dependent protein kinase type II subunit alpha (Homo sapiens) (UniProt Q9UQM7); assay: Inhibition of human CaMK2alpha at 10 uM relative to control
Chain of Calcium/calmodulin-dependent protein kinase type II subunit alpha (Homo sapiens) (Q9UQM7 whole entry): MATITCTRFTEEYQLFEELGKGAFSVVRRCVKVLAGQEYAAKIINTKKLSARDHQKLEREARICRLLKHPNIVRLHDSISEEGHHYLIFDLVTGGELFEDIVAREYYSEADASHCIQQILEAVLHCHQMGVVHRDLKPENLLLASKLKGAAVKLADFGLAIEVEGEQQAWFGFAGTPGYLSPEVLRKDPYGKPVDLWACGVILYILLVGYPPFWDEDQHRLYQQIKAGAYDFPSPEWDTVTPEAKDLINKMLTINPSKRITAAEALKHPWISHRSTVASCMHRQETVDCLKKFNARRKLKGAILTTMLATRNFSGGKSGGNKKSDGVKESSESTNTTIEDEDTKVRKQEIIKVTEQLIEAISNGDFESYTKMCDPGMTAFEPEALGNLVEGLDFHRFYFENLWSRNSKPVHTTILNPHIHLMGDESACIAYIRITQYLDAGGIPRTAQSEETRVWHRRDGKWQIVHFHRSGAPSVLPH

[33] = target: DNA (cytosine-5)-methyltransferase 1 (Homo sapiens) (UniProt P26358); assay: Inhibition of DNMT1 (unknown origin) using dsDNA as substrate at 1 to 10 uM incubated for 1 hrs in the presence of [3H-SAM] by scintillation proximity assay; details: dose 1-10 µM
U2OS [34] = assay: Induction of cell cycle arrest in human U2OS cells assessed as increase in H4K20me1 in S phase at 0.6 to 6 uM by plot analysis; format: functional, cell-based; details: dose 0.6-6 µM

For O=C(c1nnc(NC2CCCC2)c2cc(Cl)c(Cl)cc12)N1CCC(O)CC1, the inhibition (Homo sapiens [1]) was -7%, the inhibition [2] was 19% and the inhibition [3] was “inactive”. The Activity (U2OS [4]) was “inactive”, the inhibition (Homo sapiens [5]) was -5% and the inhibition [6] was “inactive”. The inhibition (Homo sapiens [7]) was 21%, the inhibition [8] was 1% and the inhibition [9] was 3%.
For Clc1cc2c(NC3CCCC3)nnc(-c3ccncc3)c2cc1Cl, the Activity (PC-3) was “Active”, the Activity (U2OS [10]) was “Active” and the inhibition [11] was -4%. For the same compound, the inhibition [12] was -2%, the inhibition [13] was “inactive” and the Activity (U2OS [14]) was “Active”. For the same compound, the inhibition [15] was “inactive”, the inhibition [16] was -3% and the inhibition (U2OS [17]) was “Active”. For the same compound, the Activity (U2OS [18]) was “Active”, the inhibition [19] was -5% and the inhibition [20] was “inactive”. For the same compound, the inhibition [21] was “inactive”, the inhibition [22] was “inactive” and the Activity (U2OS [23]) was “Active”. For the same compound, the inhibition [24] was 3%, the Activity (U2OS [25]) was “Active” and the Activity (MEF) was “Active”. For the same compound, the Activity (U2OS [26]) was “Active”, the inhibition [27] was “inactive” and the inhibition [28] was “inactive”. For the same compound, the Activity (HeLa) was “Active”, the inhibition [29] was -4% and the inhibition [30] was 0%. The inhibition [31] was 1%, the inhibition [32] was -5% and the inhibition [33] was “inactive”. The Activity (U2OS [34]) was “Active”.
